Results published in patent US10111822B2, “External dermal composition for anti-ageing and method for producing the same” (Hayashibara Co., Ltd., priority 2012, dated 2018).

Legend:
ZO-1 = test: TJ-related protein ZO-1 in NHEK cells (Western); assay type: cell-based, human; conditions: 3 days, CaCl2 positive control = 100%, no addition 38%
Procedure: The following experiment was conducted to examine the effect of ascorbic acid 2-glucoside on the production of TJ-related proteins that constitute cell-cell adhesion structures by focusing on occludin and ZO-1 that are focused on as TJ-related proteins known to exist in a granular layer of epidermis: As a model for typical normal human epidermal cells, NHEK cells were suspended in EpiLife medium (pH 7.4); inoculated to 12-well microplates at a cell density of 1×10^5 cells/well; cultured overnight under the conditions of 37° C. and 5% v/v CO2; and further cultured for three days under the conditions of 37° C. and 5% v/v CO2 after adding either CaCl2 as a positive control to each well to give a final concentration of 0.5 mM, or “AA2G”, a product name of a particulate composition containing anhydrous crystalline ascorbic acid 2-glucoside, commercialized by Hayashibara Co., Ltd., Okayama, Japan, to give a final concentration of 0.5 or 1 mM. […] A sample of 20 μg protein for each lane per each cell extract in respective wells was applied to sodium dodecyl sulfate polyacrylamide gel electrophoresis (SDS-PAGE) with 10% w/v SDS containing DTT, followed by assaying the concentration of occludin or ZO-1 in each cell extract with “Luminate Western HRP Substrates”, a product name of a premixed, ready-to-use chemiluminescent detection reagent using an internal standard “α-Tubulin”, commercialized by Merck KGaA, Darmstadt, Germany, wherein there were used “F-11”, a product name of an anti-occludin mouse monoclonal antibody, commercialized by Santa Cruz Biotechnology, Inc., Texas, USA, or “ZO1-1A12”, a product name of a ZO-1 mouse monoclonal antibody, commercialized by Invitrogen Corporation, Calif., USA, was used as a first antibody; and “PO447”, a product name of a horseradish peroxidase (HRPO) labeled anti-mouse IgG, commercialized by DAKO Japan Inc., Tokyo, Japan, or “PO448”, a product name of an HRPO-labeled anti-rabbit IgG, commercialized by DAKO Japan Inc., Tokyo, Japan, as a secondary antibody. […]

NHEK cells = test: Proliferation of NHEK cells (methylene blue staining); assay type: cell-based, human; conditions: 4 days
Description: Normal human epidermal keratinocytes from neonatal foreskin (commercialized by Kurabo Industries Ltd., Osaka, Japan, and abbreviated as “NHEK cells”, hereinafter) were suspended in EpiLife medium (commercialized by Invitrogen Corporation, Calif., USA) supplemented with a cell-growth supplement (EDGS: EpiLife Defined Growth Supplement) (EpiLife medium supplemented with EDGS is abbreviated as “EpiLife medium”, hereinafter), and subjected to passage cultures at a confluent density of 60 to 80% under a 5% v/v CO2 condition and at 37° C. The proliferated cells were detached from culture vessels, suspended in HuMedia-KB2 medium (commercialized by Kurabo Industries Ltd., Osaka, Japan) to give a cell density of 7.5×10^3 cells/mL, inoculated to 24-well plates coated with collagen (“Cell matrix Type IV”, a product name of Nitta Gelatin Inc., Osaka, Japan) in a volume of 0.4 mL/well, and cultured for one day under a 5% v/v CO2 condition and at 37° C. […] Then, the resulting cells were washed with distilled water and admixed with 0.33 N hydrochloric acid in a volume of 0.5 mL/well to extract the dye (methylene blue), followed by transferring the resulting extract to 96-well plates in a volume of 0.1 mL/well for measuring the absorbance at wavelengths of 595 nm and 650 nm. The values, obtained by subtracting the absorbance at a wavelength of 650 nm from that of 595 nm, were regarded as indexes of cell growth rates, which were relatively evaluated by regarding the value, as a control, obtained with KB2-HI medium free of ascorbic acid 2-glucoside as 100%.

[1] = pH of aqueous solutions of compositions; assay type: physicochemical; conditions: 2 g (d.s.b.) dissolved in 20 mL refined water; ratio by mass (anhydrous crystalline sodium salt):(anhydrous crystal)

**Q.** What does the source list for `O=C1O[C@H]([C@@H](O)CO)C(O)=C1O[C@H]1O[C@H](CO)[C@@H](O)[C@H](O)[C@H]1O` [ascorbic acid 2-glucoside, 2-O-α-D-glucosyl-L-ascorbic acid]?
**A.** ZO-1 Concentration in cell extract (ZO-1; 0.5 mM): 72%; ZO-1 Concentration in cell extract (ZO-1; 1 mM): 92%; Cell growth rate (NHEK cells; 100 μM, control without ascorbic acid 2-glucoside = 100%): 148%; Cell growth rate (NHEK cells; 300 μM, control = 100%): 157%; Cell growth rate (NHEK cells; 900 μM, control = 100%): 169%; pH [1]: 1.7
